According to patent publication US5573999A, “β-substituted cinnamic acid derivative” (BASF Aktiengesellschaft, priority 1991, dated 1996):

Experiments:
[1] = test system: mitochondrial respiration; test: Inhibition of mitochondrial respiration (rate of reduction of cytochrome c in isolated mitochondria), yeast; assay type: biochemical, Saccharomyces cerevisiae; conditions: DMSO control
Excerpt: In order to determine the effect of the compounds according to the invention on mitochondrial respiration it is first necessary to isolate the mitochondria from the organisms being investigated. For this, in the case of the yeast Saccharomyces cerevisiae, the cells in a 30 to 40% strength suspension of the yeast in an aqueous solution of 0.6M mannitol+0.01M tris[hydroxymethyl]-aminomethane+0.002M disodium ethylenediaminetetraacetate (pH 6.8) are disrupted in a glass bead mill, and the extract is fractionated by differential centrifugation at 1000× g and 12000× g. The mitochondria are in the pellet from the 12000× g centrifugation.
(§1) Used as control is a mixture with the equivalent amount of pure DMSO. The inhibition at the concentration of agent in each case is then calculated as follows [formula] where ΔE is the change in extinction, at is the change in time, [formula] is the reaction rate for the control and [formula] is the reaction rate for the sample x.
(§2) The inhibition was determined in each case at a test substance concentration of 1.8/10^-5mol/l .

[2] = test system: mitochondrial respiration; test: Inhibition of mitochondrial respiration (rate of reduction of cytochrome c in isolated mitochondria), house fly; assay type: biochemical, Musca domestica; conditions: DMSO control
Excerpt: (§3) It is also possible similarly to isolate mitochondria from other organisms, e.g. from the phytopathogenic fungus Drechslera sorokiniana (synonym: Helminthosporium sativum), from the dermatophyte Trichophyton mentagrophytes, which is a human pathogen, and, for example, from the house fly (Musca domestica) as insect or from the spider mite Tetranychus urticae.
as §1, §2

[3] = test system: mitochondrial respiration; test: Inhibition of mitochondrial respiration (rate of reduction of cytochrome c in isolated mitochondria), phytopathogenic fungus; assay type: biochemical, Drechslera sorokiniana; conditions: DMSO control
Excerpt: as §3, §1, §2

Pyricularia oryzae = assay type: in vivo; conditions: aqueous dispersion containing 250 ppm active ingredient; rice seedlings, protective, assessed after 6 days
Plasmopara viticola = test: Activity against Plasmopara viticola on potted vines; assay type: in vivo; conditions: aqueous dispersion containing 250 ppm active ingredient, infected 8 days after spraying
Procedure: Leaves of potted vines of the Muller Thurgau variety were sprayed with an aqueous liquor which contained 80% of active ingredient and 20% of emulsifier in dry matter. To assess the duration of action of the active ingredient, after the sprayed-on layer had dried the plants were placed in a greenhouse for 8 days. The leaves were then infected with a suspension of Plasmopara viticola zoospores. The vines were then placed first in a chamber saturated with water vapor at 24° C. for 48 hours and then in a greenhouse at from 20° to 30° C. for 5 days. After this, to speed up sporangiophore discharge, the plants were again placed in the humidity chamber for 16 hours. The extent of fungus attack was then assessed on the undersides of the leaves.

[4] = test system: wheat mildew (Erysiphe graminis var. tritici); test: Activity against wheat mildew on wheat seedlings; assay type: in vivo; conditions: aqueous dispersion containing 250 ppm active ingredient, assessed after 7 days
Procedure: Leaves of pot-grown wheat seedlings of the Fruhgold variety were sprayed with an aqueous liquor which contained 80% of active ingredient and 20% of emulsifier in dry matter and, 24 hours after the sprayed-on layer had dried, were dusted with spores of wheat mildew (Erysiphe graminis var. tritici). The test plants were then placed in a greenhouse at from 20° to 22° C. and from 75 to 80% relative humidity. The extent of mildew spread was assessed after 7 days.

SMILES | % inhibition of respiration at 1.8 × 10^-5 mol/l test substance, Saccharomyces cerevisiae [1] | % inhibition of respiration at 1.8 × 10^-5 mol/l test substance, Musca domestica [2] | % inhibition of respiration at 1.8 × 10^-5 mol/l test substance, Drechslera sorokiniana [3] | fungal attack, Pyricularia oryzae (Pyricularia oryzae) | fungal attack, Plasmopara viticola (Plasmopara viticola) | fungal attack, wheat mildew [4]
O=C(C=C(c1ccccc1)c1ccccc1)N1CCOCC1 [A, morpholide of β-phenylcinnamic acid, reference compound] | 2% | 5% | 0% | 60% | 35% | 45%
CO/N=C(\C)c1ccc(OCc2ccccc2/C(=C\C(=O)OC)OC)c(C)c1 [Compound 1a.72, methyl (E)-β-methoxy-2-[2-methyl-4-(1-methoximinoethyl)phenoxymethyl]cinnamate] | 98% | 94% | 100% | 15% | 10% | 15%
COC(=O)/C=C(/OC)c1ccccc1COc1nc(-c2ccccc2)cs1 [Compound 1a.181, methyl (E)-β-methoxy-2-(4-phenyl-2-thiazolyloxymethyl)cinnamate] | 99% | – | – | 15% | – | –
COC(=O)/C=C(/OC)c1ccccc1/C=C\c1ccccc1C [Compound 1a.248] | 95% | – | – | 15% | – | 15%
COC(=O)/C=C(/OC)c1ccccc1/C=C/c1coc(-c2ccc(Cl)cc2)n1 [Compound 1a.302] | 97% | 96% | – | 15% | – | –
COC(=O)/C=C(/OC)c1ccccc1/C=C/c1csc(-c2ccc(Cl)cc2)n1 [Compound 1a.314] | 99% | – | – | 15% | – | –
COC(=O)/C=C(/OC)c1ccccc1CON=C(C)c1ccc(Cl)cc1 [Compound 1a.356, methyl2-[1-(4-chlorophenyl)ethylideneaminoxymethyl]-(E)-β-methoxycinnamate] | – | – | – | 15% | 10% | 15%
